Entries after “also recorded” stand apart in the source; their conditions may differ. Read-outs that look alike come from different tables or passages of the source. Some results are limits rather than exact numbers.

For data set [1] the following is noted: mouse, in vivo; cited from earlier work.
The target in a further data set is P. falciparum Hsp90 (Plasmodium falciparum, UniProt Q8IC05). Nature of the data set: biochemical. It is filed as binding. The protocol:
(§1) Full-length human recombinant HSP90α was purchased (Cayman Chemicals, MI), while the malaria recombinant parasite proteins were generated according to the following protocol. […] Growth at 37 °C continued until the OD600 reached ~1.0, whereupon the temperature was lowered to 18 °C and protein expression was induced by the addition of 1 mM isopropyl β-D-thiogalactopyranoside (IPTG). Overnight post-induction cells were collected by centrifugation and resuspended in binding buffer [50 mM Hepes pH 7.5, 500 mM NaCl, 1 mM benzamidine, and 1 mM phenylmethanesulfonyl fluoride (PMSF)]. The cells were lysed by adding chemical lysis buffer (2% CHAPS, 0.1 mg/mL lysozyme and 0.5 U/mL benzonase), the lysate was clarified by centrifugation. The supernatant was loaded on to a nickel-nitrilotriacetic acid column pre-equilibrated with binding buffer (50 mM Hepes pH 7.5, 500 mM NaCl). Following a wash step with binding buffer containing 5 mM imidazole, the bound protein was eluted with elution buffer (50 mM Hepes pH 7.5, 500 mM NaCl, 250 mM imidazole). The eluate was then loaded on to a 16/60 Superdex 200 size exclusion column pre-equilibrated with 50 mM Hepes pH 7.5 and 500 mM NaCl. Target protein-containing fractions were pooled and concentrated using centrifugal filter units (Amicon). The final protein products and samples for different steps in the purification procedures were evaluated in SDS-Page gels.
(§2) SPR measurements were performed on Biacore T200 instrument (GE Healthcare) at 25 °C. Purified P. falciparum Hsp90 and PfGRP94 N-terminal domain, and full-length human Hsp90α were immobilized on a CM5 sensorchip using NHS/EDC coupling following the manufacturer protocol to a level of <10,000 RUs, a reference surfaces without immobilized proteins served as a control for nonspecific binding and refractive index changes. Seven different concentrations of the ligands between 0.4 nM and 1 mM, were injected in triplicate over the sensor chip at 30 μL/min in random order. The running buffer was 10 mM HEPES, pH 7.4, 150 mM NaCl, 0.005% P20, 1% DMSO and 2 mM MgCl2. Buffer alone injections were used as blanks. The sensor surface was regenerated between injections with a short injection of a buffer 10 mM HEPES, pH 7.4, 150 mM NaCl, 0.005% P20 and 3 mM EDTA. The Biacore responses recorded during the 30 s of the injection were used to estimate the association constant (k on) and the 300 s after the injection were used to estimate the dissociation constant (k off). All kinetic constants were estimated using double subtracted sensorgrams using BiaEvaluation Software (GE Healthcare), the kinetic constants were used to calculate the dissociation constant (K d).

The target of another data set is P. falciparum Grp94 (Plasmodium falciparum, UniProt Q8I0V4). Nature of the data set: biochemical. It is filed as binding. The protocol: as §1, §2
Chain of P. falciparum Grp94 (Q8I0V4 entry or part of it): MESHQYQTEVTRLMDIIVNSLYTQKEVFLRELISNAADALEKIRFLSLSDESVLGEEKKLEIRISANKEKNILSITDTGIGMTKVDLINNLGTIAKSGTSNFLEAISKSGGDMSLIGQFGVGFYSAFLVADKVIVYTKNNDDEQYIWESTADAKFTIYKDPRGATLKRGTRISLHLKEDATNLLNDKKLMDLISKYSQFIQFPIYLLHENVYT
Data set [2] has as its system P. falciparum 3D7. Nature of the data set: Recrudescence assay, 3D7. Type of data set: cell-based, Plasmodium falciparum. Conditions: for recovery time in combination with DHA vs DHA alone: 3D7, 48 h, two concentrations plus DHA 100 nM; for delay of culture recovery vs untreated control (cytocidal activity): 3D7, 48 h exposure, 17-AAG 1.5-6 µM, 17-DMAG 0.3-1.2 µM, NVP-AUY922 0.18-0.72 µM. The protocol:
(§3) The assay is a modification of the previously reported bulk recrudescence assay. […] […] After drug exposure, the medium containing the drug was removed and the cultures were washed twice with compound-free media, and resuspended in RPMI to adjust haematocrit to 5%. The medium was changed every day and red blood cells were added every 2 days to adjust the haematocrit. The cultures were monitored daily until they reached 10% parasitaemia, which represented the end point of the experiment. Culture parasitaemia was determined by scoring >2000 erythrocytes in Giemsa-stained thin blood films as parasitized or not. The median number of days to reach this level of parasitaemia was reported for all the experiments. All experiments were conducted in triplicate; each replica was conducted on different days. The differences in the recovery times between control cultures to those exposed to Hsp90 inhibitors were analysed using the non-parametric statistic Kruskal–Wallis test. If the overall test was significant then Dunn’s multiple comparison tests were used to identify significant differences among pair comparisons. The same statistical analysis was applied when comparing P. falciparum cultures exposed to DHA alone versus DHA in combination with Hsp90 inhibitors. […] The statistical analyses were performed with the software Prism v6 (GraphPad Software, San Diego, CA).

For data set [3], the system named is Primary normal human lung fibroblasts (NHLFs). Nature of the data set: Drug cytotoxicity assay (MTT). Conditions: 24 h; for IC50: Homo sapiens, Fibroblast, read-out: IC50 against human cells.
Experimental: Primary normal human lung fibroblasts (NHLFs) were seeded on 24-well plates and cultured in FGM-2 media (LONZA, Basel, Switzerland) until they reached 80% confluency. […] Briefly, 50 µL of MTT dye was added into the media and the cells were returned to the incubator for 3 h. Then 500 µL of solubilization solution was added to dissolve the MTT formazan crystals. […] The drug cytotoxicity assay was performed in triplicate.
The test system of data set [4] is P. falciparum W2. Nature of the data set: Parasite stage specific effect, W2. It is filed as cell-based, Plasmodium falciparum. The settings on record: W2, 24 h; 17-DMAG 1.2 µM, NVP-AUY922 0.72 µM. On the procedure:
(§4) Synchronized P. falciparum cultures were used to determine the susceptibility of different parasite stages to Hsp90 inhibitors. Three synchronized cultures per strain, with a majority of the parasites in the ring (0–26 h post red blood cell infection), trophozoite (26–38 h) or schizont (38–48 h) stages respectively (Fig. 3). […] The cultures were exposed to one concentration of the Hsp90 inhibitor for 24 h. […] For each three exposed the cultures and the control for both strains 3D7 and W2, the parasitaemia and the developmental stage of the parasites were recorded. Before and after drug exposure, Giemsa-stained blood smears were scored by microscopy examination counting 100 infected erythrocytes per culture, and the proportion of each developmental stage was calculated.

The subject of data set [5] is P. falciparum chloroquine sensitive 3D7. Nature of the data set: Growth inhibition assay (SYBR Green I), 3D7. Conditions: 3D7, 72 h; for IC50: synchronized ring culture.
Experimental: (§5) A 50% suspension of non-infected O positive erythrocytes was added every 2 days to adjust haematocrit to 5%. Parasite cultures were maintained at 37 °C in 5% O2 and 5% CO2 atmosphere with daily changes of culture media.
(§6) A synchronized P. falciparum culture, with over 80% ring forms, was used in the growth inhibition assay. […] A 190 μL aliquot of parasite culture was dispensed per well to microplates that were pre-dispensed with the compounds at various dilutions. […] Dilutions of Hsp90 inhibitors and DHA were prepared in water with a final concentration of DMSO below 0.05% (v/v).
(§7) The microplates were incubated at 37 °C in a controlled atmosphere (5% O2, 5% CO2 Nitrogen balanced) for 72 h. After incubation, the plates were subject to a freeze–thaw cycle (−80 °C) and the parasite growth was quantified by the SYBR Green I method as previously described [33]. Briefly, 100 µL of homogenized parasite culture was transferred into 96-well black plates. […] The plates were incubated at room temperature in darkness for 1 h.
(§8) Growth inhibition experiments were conducted at least three times per compound (biological replicates, n ≥ 3). The IC50 differences for each inhibitor between the two P. falciparum strains were compared with a t test.
Data set [6] has as its system P. falciparum chloroquine resistant W2. Nature of the data set: Growth inhibition assay (SYBR Green I), W2. The settings on record: W2, 72 h; for IC50: synchronized ring culture.
Experimental: as §5, §6, §7, §8
A further data set concerns the target T1, human Hsp90α (Homo sapiens, UniProt P07900).
T1 construct: Full-length human recombinant HSP90α was purchased; purchased Cayman Chemicals, MI
Nature of the data set: Biacore SPR analysis, full-length human Hsp90α. It is filed as binding. The settings on record: SPR, 25 °C. On the procedure: as §1
as §2, with “Seven different concentrations of the ligands between 0.4 nM and 1 mM, were injected in triplicate over the sensor chip at 30 μL/min in random order.” left out
(In general: SPR reads the build-up and loss of mass on a sensor chip optically.)

In data set [7] the test system is P. falciparum W2. Nature of the data set: Recrudescence assay, W2. The settings on record: for recovery time in combination with DHA vs DHA alone: W2, 48 h, two concentrations plus DHA 100 nM; for delay of culture recovery vs untreated control (cytocidal activity): W2, 48 h exposure, 17-AAG 1.5-6 µM, 17-DMAG 0.3-1.2 µM, NVP-AUY922 0.18-0.72 µM. Type of data set: cell-based, Plasmodium falciparum. The protocol: as §3

Data set [8] deals with P. falciparum 3D7. Nature of the data set: Parasite stage specific effect, 3D7. It is filed as cell-based, Plasmodium falciparum. The settings on record: 3D7, 24 h; 17-DMAG 1.2 µM, NVP-AUY922 0.72 µM. On the procedure: as §4
On the set-up of data set [9]: method as in PMID 18020435. Conditions: mice, 50 mg/kg; read-out: Cmax in plasma; cited from earlier work.
[10] abbreviates: SPR, 25 °C, calculated from kinetic constants, read-out: Kd.

Chain of P. falciparum Hsp90 (Q8IC05 entry or part of it): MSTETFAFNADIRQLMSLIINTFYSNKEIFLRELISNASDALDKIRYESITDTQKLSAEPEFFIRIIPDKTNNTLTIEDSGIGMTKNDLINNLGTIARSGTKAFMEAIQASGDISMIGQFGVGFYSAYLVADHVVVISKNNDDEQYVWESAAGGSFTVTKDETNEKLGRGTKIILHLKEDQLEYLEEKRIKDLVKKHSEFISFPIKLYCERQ

One may read the Kd as the constant that tells how readily two partners part at equilibrium. The IC50 is the midpoint of a concentration-inhibition curve. By IC90 is commonly meant the point of the concentration-response curve where the effect stands at 90%. Low readings indicate greater potency, high ones weaker potency. Consider `CO[C@H]1/C=C\C=C(/C)C(=O)NC2=CC(=O)C(NCCN(C)C)=C(C[C@@H](C)C[C@H](OC)[C@H](O)[C@@H](C)/C=C(\C)[C@@H]1OC(N)=O)C2=O` [17-DMAG, 17-(dimethylaminoethylamino)-17-demethoxygeldanamycin], for which, in [1], the tolerability result is listed as “well tolerated without any visible side effects”. Also, the ka at P. falciparum Hsp90 (SPR, 25 °C) is listed as 208,000 1/Ms; on P. falciparum Grp94 (SPR, 25 °C), 53,000 1/Ms. Further, the kd at P. falciparum Hsp90 (SPR, 25 °C) was 0.001 s⁻¹; at P. falciparum Grp94 (SPR, 25 °C), 0.001 s⁻¹; on human Hsp90α, 0.007 s⁻¹. Moreover, the Kd on P. falciparum Hsp90 (setting [10]) was 8 nM; on P. falciparum Hsp90 (read-out: Kd against the parasite chaperone) it was 8.23 nM; on P. falciparum Grp94 (setting [10]), 23 nM. The “recovery time in combination with DHA vs DHA alone” value is listed as “more effective in combination against P. falciparum 3D7 but only at one of the lowest concentrations” in the data set with P. falciparum 3D7 [2] and “not significantly more toxic to W2” in the data set on P. falciparum W2 [7]. In addition, the “delay of culture recovery vs untreated control (cytocidal activity)” value in the data set with P. falciparum 3D7 [2] and in the data set with P. falciparum W2 [7] was “only significantly different from the control parasite cultures when assayed at a concentration ~8 times its average IC50; also recorded: strong cytotoxic activities” throughout. Also, the 50% inhibitory concentration (IC50) in [3] was above 10000 nM; in [5], 118 nM; in [5] (Plasmodium falciparum), 118 nM; in data set [6] (Plasmodium falciparum), 169 nM; in data set [6], 170 nM. In data set [3] (NHLF, 0.5 to 10 µM), the “growth inhibition for the human cells” value is given as at most 25%. Further, in data set [3] (NHLF, 0.5 to 10 µM, t test), the “growth of host cells compared to no drug controls” value is reported as “only the highest concentration (10 µM) was significantly different from the controls”. For the same compound, the “effect against all parasite stages (ring, trophozoite, schizont)” value with P. falciparum W2 [4] and in the data set on P. falciparum 3D7 [8] was “effective against all parasite stages” each time. Also, the 90% effect concentration (IC90) was 287 nM in [5] (Plasmodium falciparum) and 542 nM in data set [6] (Plasmodium falciparum).
One may read the Cmax as the maximum level reached in the sampled fluid or tissue. Consider `CCNC(=O)c1noc(-c2cc(C(C)C)c(O)cc2O)c1-c1ccc(CN2CCOCC2)cc1` [NVP-AUY922], for which the Cmax in data set [9] was 35 µM. The ka on P. falciparum Hsp90 is reported as 107,000 1/Ms; on P. falciparum Grp94, 438,000 1/Ms. Moreover, the kd on P. falciparum Hsp90 was determined as 0.001 s⁻¹; at P. falciparum Grp94, 0.004 s⁻¹. The Kd on P. falciparum Hsp90 (Kd) came out at 13 nM; on P. falciparum Hsp90 (Kd against the parasite chaperone), 13.2 nM; on P. falciparum Grp94 it was 9 nM. Besides, the entries for the “recovery time in combination with DHA vs DHA alone” value in the data set with P. falciparum 3D7 [2] and with P. falciparum W2 [7] were “increase in the time required to reach 10% parasitaemia” and “only significant in the case of P. falciparum W2”, respectively. For the same compound, the “delay of culture recovery vs untreated control (cytocidal activity)” value with P. falciparum 3D7 [2] was “(0.36 and 0.72 µM) significantly delayed the parasite recovery; also recorded: strong cytotoxic activities”; in the data set with P. falciparum W2 [7], “(0.36 and 0.72 µM) significantly delayed the parasite recovery; also recorded: strong cytotoxic activities”. Also, the IC50 in [3] was above 10000 nM; in data set [5], 75.5 nM; in [5] (Plasmodium falciparum) it was around 75 nM; in [6] (Plasmodium falciparum) it was around 75 nM; in data set [6] it was 75.4 nM. The “growth inhibition for the human cells” value in [3] (NHLF, 0.5 to 10 µM) is given as at most 25%. The “effect against all parasite stages (ring, trophozoite, schizont)” value in the data set on P. falciparum W2 [4] and with P. falciparum 3D7 [8] was “effective against all parasite stages” throughout. In addition, the IC90 in data set [5] (Plasmodium falciparum) came to 646 nM; in [6] (Plasmodium falciparum) it was 460 nM.
